“Also recorded” adds a separate entry of the source.
Tests used:
[1] = test system: β-catenin in SAOS-2 cells; test: immunofluorescence of total and non-phosphorylated β-catenin nuclear localization; format: cell-based; conditions: SAOS-2, 10 μM, 24 h
Experimental: (§1) In (A) SAOS-2 cells were incubated in the absence or presence of 10 μM Histatin-1 for 24 h, and whole cell lysates were prepared for Western blot analysis of β-catenin. […] In (B) SAOS-2 cells were incubated with Histatin-1 for 24 hours. Cells were then fixed, permeabilized and incubated with primary and secondary antibodies for subsequent immunofluorescence analysis of total and non-phosphorylated (transcriptionally active) β-catenin.
Representative Western blot images are shown, and relative levels of β catenin were quantified by scanning densitometry and normalized to actin. Graphs represent the average from 3 independent experiments (mean±s.e.m.; *p<0.05). (B) SAOS 2 cells were treated or not with 10 μM Histatin 1 for 24 h, then fixed, permeabilized and analyzed incubated with primary and secondary antibodies for subsequent immunofluorescence analysis of total and non-phosphorylated (transcriptionally active) β-catenin. Left panels show representative confocal microscopy images of total and active β-catenin, whereas nuclei staining with DAPI was used as reference. […]
Alternatively, SAOS-2 cells grown on coverslips were fixed, permeabilized and analyzed for total and active β-catenin nuclear localization.

endothelial cells = conditions: in vitro; cited from earlier work
MC3T3-E1 preosteoblasts = test: in vitro mineralization test (alizarin red); format: cell-based; conditions: MC3T3-E1, 10 μM, 7 days
Experimental: (§2) The ability of Histatin-1 to stimulate the formation of calcium deposits was determined by the alizarin red staining test. For this, SAOS-2 cells, MC3T3-E1 preosteoblasts, stem cells from the apical papilla or dental pulp stem cells were grown in complete medium supplemented with bovine serum, in the absence or presence 10 μM Histatin-1 for 7 days. […] Cells were washed with PBS, fixed with 4% paraformaldehyde, and stained with Alizarin Red aqueous solution for 1 h. Finally, samples were washed with distilled water and subsequently with PBS. Calcium deposits were visualized in an optic microscope. Representative images are shown, and graphs represent the quantification of the amount of calcium deposits. Values are shown as the mean±s.e.m (*p<0.01; ***p<0.001).

SAOS-2 cells = test: in vitro mineralization test (alizarin red); format: cell-based; conditions: SAOS-2, 10 μM, 7 days
Experimental: as §2

[2] = test system: Alkaline Phosphatase (ALP) in SAOS-2 cells; test: alkaline phosphatase activity, p-nitrophenyl phosphate, absorbance at 405 nm; format: cell-based; conditions: SAOS-2, 10 μM, 24 and 48 h
Experimental: (§3) In (A) SAOS-2 and (B) MC3T3-E1 cells were incubated in the absence or presence of 10 μM Histatin-1 for 24 h, and whole cell lysates were analyzed by Western blotting of ALP. […] In (C) SAOS-2 cells were treated or not with 10 μM Histatin-1 for 24 and 48 h, and the activity of alkaline phosphatase (ALP) was measured by metabolization of the substrate p-nitrophenyl phosphate, following absorbance at 405 nm.
Representative Western blot images are shown, and relative levels of ALP were quantified by scanning densitometry and normalized to actin. Graphs represent the average from 3 independent experiments (mean±s.e.m.; *p<0.05). (C) SAOS 2 cells were treated or not with 10 μM Histatin 1 for 24 and 48 h, and the activity of alkaline phosphatase (ALP) was measured by metabolization of the substrate p-nitrophenyl phosphate, following absorbance at 405 nm. Data were averaged from 3 independent experiments and shown as residual activity (% increase with respect to the control condition; mean±s.e.m; *p<0.05).

[3] = test system: Runx2, osteocalcin, osteopontin and ALP mRNA in MC3T3-E1 cells; test: RT qPCR of osteoblastic differentiation markers; format: cell-based; conditions: MC3T3-E1, 10 μM, 7 days
Experimental: (§4) (A) MC3T3-E1 and (B) AMPCs cells were treated or not with 10 μM Histatin-1 for 7 days. Total RNA was extracted, for subsequent RT qPCR analysis of Runx2, osteocalcin, osteopontin and ALP.
(§5) To evaluate the differentiation towards bone lineage in the presence of Histatin-1, the expression of the osteocalcin, osteopontin, Runx2 and ALP gene were determined, as markers of differentiation, by means of a qPCR assay for mRNA content analysis. For this, osteoblasts-like cells and stem cells from the apical papilla were grown in complete medium supplemented with bovine serum, in the absence or presence of 10 μM Histatin-1 for 24 h. Total RNA was extracted with TRIZOL (Invitrogen, Life Technologies), following the manufacturer's instructions. For cDNA synthesis, samples were treated with RNase-Free DNase kit (#M6101 Promega), quantified and purity was verified for subsequent reverse transcription, using the cDNA Reverse Transcription Kit (Applied Biosystems). Alkaline phosphatase, osteocalcin, osteopontin, Runx2 and GAPDH were quantified by qRT-PCR (Applied Biosystems, ΔΔCt method).
(§6) Total RNA was extracted, for subsequent RT qPCR analysis of Runx2, osteocalcin, osteopontin and ALP. Relative abundance of all screened mRNAs was normalized to GAPDH, by using the ΔΔCT method. Graphs show data obtained by averaging 3 independent experiments (mean±s.e.m.; *p<0.05; **p<0.01).

[4] = test system: Runx2, osteocalcin, osteopontin and ALP mRNA in APMCs; test: RT qPCR of osteoblastic differentiation markers; format: cell-based; conditions: 10 μM, 7 days
Experimental: as §4, §5, §6

osteoblastic cells = conditions: zoledronic acid challenge; cited from earlier work
angiogenesis = conditions: in vivo; cited from earlier work
[5] = test system: SAOS-2 osteosarcoma cells; test: in vitro cell adhesion to fibronectin coated plates, crystal violet staining; format: cell-based; conditions: SAOS-2, 10 μM Histatin-1, fibronectin 2 μg/ml, 5-60 min, serum-free medium
Experimental: (§7) For this, (A) SAOS 2 cells were collected, resuspended in serum-free medium either containing or not 10 μM Histatin-1, and incubated for 30 min. Cells were then allowed to attach to fibronectin coated plates (2 μg/ml) for 5, 10, 15, 30, 45 and 60 min in serum-free medium, containing or not 10 μM Histatin-1. Cell adhesion was detected by crystal violet staining and counting under an optic microscope. Representative images are shown for each time point, in the absence or presence of Histatin 1. […] (B, C and D) Cell migration was measured in Transwell chambers coated with 2 μg/ml fibronectin. Briefly, SAOS 2 (B), MC3T3 E1 cells (C) and APMCs (apical papilla mesenchymal cells, D) were allowed to migrate for 60 min in Transwell chambers, in the presence of 10 μM Histatin 1 or 10 μM of non-phosphorylated Histatin 1 (no P), 10 μM of a scramble sequence or vehicle control (H2O). Cells that migrated were visualized by crystal violet staining. Representative images are shown, and graphs represent the averages of 3 independent experiments (mean±s.e.m; *p<0.05; **p<0.01).

[6] = test system: stem cells from the apical papilla (APMCs); test: in vitro mineralization test (alizarin red); format: cell-based; conditions: 10 μM, 7 days
Experimental: as §2
(§8) The same procedure was performed on stem cells of the apical papilla and dental pulp.

[7] = test system: dental pulp mesenchymal cells; test: in vitro mineralization test (alizarin red); format: cell-based; conditions: dental pulp mesenchymal (stem) cells, 10 μM, 7 days
Experimental: as §2, §8

[8] = test system: Alkaline Phosphatase (ALP) in SAOS-2 cells; test: Western blot of alkaline phosphatase in whole cell lysates; format: cell-based; conditions: SAOS-2, 10 μM, 24 h
Experimental: as §3
(§9) By Western blot assay, the effect of Histatin-1 on the expression of two proteins involved in the osteogenesis process (alkaline phosphatase, β-catenin) was evaluated. For this, SAOS-2 or MC3T3-E1 cells were seeded on 60 mm plates, grown in complete medium supplemented with bovine serum for 24 h, washed with PBS and then incubated for 24 h with either serum-free medium or serum-free medium containing 10 μM Histatin-1. […] Bound first antibodies were detected with HRP-conjugated second antibodies and detected with the EZ-ECL system.
(§10) Representative Western blot images are shown, and relative levels of ALP were quantified by scanning densitometry and normalized to actin. […] (C) SAOS 2 cells were treated or not with 10 μM Histatin 1 for 24 and 48 h, and the activity of alkaline phosphatase (ALP) was measured by metabolization of the substrate p-nitrophenyl phosphate, following absorbance at 405 nm. […]

[9] = test system: Alkaline Phosphatase (ALP) in MC3T3-E1 cells; test: as above; format: cell-based; conditions: MC3T3-E1, 10 μM, 24 h
Experimental: as §3, §9, §10

[10] = test system: β-catenin in SAOS-2 cells; test: Western blot of β-catenin in whole cell lysates; format: cell-based; conditions: SAOS-2, 10 μM, 24 h
Experimental: as §1, §9
Representative Western blot images are shown, and relative levels of β catenin were quantified by scanning densitometry and normalized to actin. […] (B) SAOS 2 cells were treated or not with 10 μM Histatin 1 for 24 h, then fixed, permeabilized and analyzed incubated with primary and secondary antibodies for subsequent immunofluorescence analysis of total and non-phosphorylated (transcriptionally active) β-catenin. […]

[11] = test system: SAOS-2 osteosarcoma cells; test: Transwell cell migration assay; format: cell-based; conditions: SAOS-2, 10 μM, 60 min, Transwell coated with 2 μg/ml fibronectin
Experimental: as §7

MC3T3-E1 pre-osteoblasts = test: Transwell cell migration assay; format: cell-based; conditions: MC3T3-E1, 10 μM, 60 min, Transwell coated with 2 μg/ml fibronectin
Experimental: as §7

[12] = test system: apical papilla mesenchymal cells, APMCs; test: Transwell cell migration assay; format: cell-based; conditions: 10 μM, 60 min, Transwell coated with 2 μg/ml fibronectin
Experimental: as §7

Substance: Histatin-1: human salivary peptide of 38 amino acids, obtained by chemical synthesis, with the sequence SEQ ID NO. 1 (DSHEKRHHGYRRKFHEKHHSHREFPFYGDYGSNYLYDN; listed as Homo sapiens)
- nuclear localization of active (non-phosphorylated) β-catenin [1]: increases the nuclear localization of total and active β-catenin
- nuclear localization of total β-catenin [1]: increases the nuclear localization of total and active β-catenin
- endothelial cell migration (endothelial cells): stimulating endothelial cell migration
- formation of endothelial structures (endothelial cells): formation of endothelial structures in vitro
- calcium deposits / crystal nucleation sites (alizarin red) (MC3T3-E1 preosteoblasts): increases the number of crystal nucleation sites; also recorded: increased staining of the culture with Alizarin Red
- calcium deposits / crystal nucleation sites (alizarin red) (SAOS-2 cells): increases the number of crystal nucleation sites; also recorded: increased staining of the culture with Alizarin Red
- activity of alkaline phosphatase (ALP) [2]: increases the activity of ALP
- mRNA of osteoblastic differentiation markers (Runx2, osteocalcin, osteopontin, ALP), normalized to GAPDH [3]: increases the mRNA of different osteoblastic differentiation markers; also recorded: induces an increase in the relative abundance of mRNA
- mRNA of osteoblastic differentiation markers (Runx2, osteocalcin, osteopontin, ALP), normalized to GAPDH [4]: increases the mRNA of different osteoblastic differentiation markers; also recorded: induces an increase in the relative abundance of mRNA
- cell migration in cells challenged with zoledronic acid (osteoblastic cells): restored both cell migration and viability
- cell viability in cells challenged with zoledronic acid (osteoblastic cells): restored both cell migration and viability
- angiogenesis (angiogenesis): angiogenesis in vivo
- cell adhesion [5]: favors both cell adhesion and migration
- calcium deposits / crystal nucleation sites (alizarin red) [6]: increases the number of crystal nucleation sites; also recorded: stimulated the formation of calcium deposits
- calcium deposits / crystal nucleation sites (alizarin red) [7]: increases the number of crystal nucleation sites; also recorded: stimulated the formation of calcium deposits
- protein levels of ALP (Western blot, normalized to actin) [8]: increases the protein levels of ALP; also recorded: increased the production of this enzyme
- protein levels of ALP (Western blot, normalized to actin) [9]: increases the protein levels of ALP
- protein levels of β-catenin (Western blot, normalized to actin) [10]: increases the protein levels of β-catenin; also recorded: increases the expression of the protein
- cell migration [11]: favors both cell adhesion and migration
- cell migration (MC3T3-E1 pre-osteoblasts): favors both cell adhesion and migration
- cell migration [12]: favors both cell adhesion and migration
